From patent publication US8192962B2, “Processes for detecting toxic substances” (Daikin Industries, Ltd., priority 2001, dated 2012)

System: Metabolism protein genes
Assay: DNA chip mRNA expression in yeast, metabolism protein genes (Table 7)
Type: cell-based, Saccharomyces cerevisiae S288C
How it was run: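 S. cerevisiae S288C grown at 25° C. in YPD to log phase, then exposed 2 h to a toxicant at a growth-inhibiting, non-lethal concentration; untreated cells as control. Poly(A) mRNA reverse-transcribed with Cy3-dUTP or Cy5-dUTP, hybridized >12 h at 65° C. to whole-genome yeast DNA chip; value = fluorescence ratio treated/untreated.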

In the case of `CCCCC[C@H](O)CC(=O)CCc1ccc(O)c(OC)c1` [(13), gingerol], the “The level of expressed mRNA in the presence of chemical substance/The level of expressed mRNA in the absence of chemical substance” value (yeast gene YJL099W) is reported as 2.4, the “level of expressed mRNA in the presence/in the absence of chemical substance” value (yeast gene YJL121C) is reported as 0.7 and the “level of expressed mRNA in the presence/in the absence of chemical substance” value (yeast gene YJL167W) is reported as 0.9. The “The level of expressed mRNA in the presence of chemical substance/The level of expressed mRNA in the absence of chemical substance” value (yeast gene YJL172W) was 3.1, the “level of expressed mRNA in the presence/in the absence of chemical substance” value (yeast gene YJL216C) was 1.1 and the “level of expressed mRNA in the presence/in the absence of chemical substance” value (yeast gene YJR077C) was 0.9. The “The level of expressed mRNA in the presence of chemical substance/The level of expressed mRNA in the absence of chemical substance” value (yeast gene YJR137C) was 2.1, the “level of expressed mRNA in the presence/in the absence of chemical substance” value (yeast gene YJR143C) was 0.3 and the “The level of expressed mRNA in the presence of chemical substance/The level of expressed mRNA in the absence of chemical substance” value (yeast gene YJR148W) was 1.1. The “The level of expressed mRNA in the presence of chemical substance/The level of expressed mRNA in the absence of chemical substance” value (yeast gene YJR155W) was 5.7, the “The level of expressed mRNA in the presence of chemical substance/The level of expressed mRNA in the absence of chemical substance” value (yeast gene YKL035W) was 2.0 and the “level of expressed mRNA in the presence/in the absence of chemical substance” value (yeast gene YKL060C) was 1.2. For the same molecule, the “The level of expressed mRNA in the presence of chemical substance/The level of expressed mRNA in the absence of chemical substance” value (yeast gene YKL091C) was 2.0, the “The level of expressed mRNA in the presence of chemical substance/The level of expressed mRNA in the absence of chemical substance” value (yeast gene YKL104C) was 2.2 and the “level of expressed mRNA in the presence/in the absence of chemical substance” value (yeast gene YKL148C) was 0.8. For the same molecule, the “The level of expressed mRNA in the presence of chemical substance/The level of expressed mRNA in the absence of chemical substance” value (yeast gene YKL152C) was 2.7, the “level of expressed mRNA in the presence/in the absence of chemical substance” value (yeast gene YKL157W) was 2.3 and the “The level of expressed mRNA in the presence of chemical substance/The level of expressed mRNA in the absence of chemical substance” value (yeast gene YKL213C) was 2.1. The “The level of expressed mRNA in the presence of chemical substance/The level of expressed mRNA in the absence of chemical substance” value (yeast gene YKL215C) was 2.6, the “level of expressed mRNA in the presence/in the absence of chemical substance” value (yeast gene YKR034W) was 1.2 and the “The level of expressed mRNA in the presence of chemical substance/The level of expressed mRNA in the absence of chemical substance” value (yeast gene YKR039W) was 1.3. The “The level of expressed mRNA in the presence of chemical substance/The level of expressed mRNA in the absence of chemical substance” value (yeast gene YLL058W) was 2.3, the “level of expressed mRNA in the presence/in the absence of chemical substance” value (yeast gene YLR006C) was 0.8 and the “level of expressed mRNA in the presence/in the absence of chemical substance” value (yeast gene YLR044C) was 1.7. For the same molecule, the “level of expressed mRNA in the presence/in the absence of chemical substance” value (yeast gene YLR056W) was 0.2, the “level of expressed mRNA in the presence/in the absence of chemical substance” value (yeast gene YLR058C) was 0.3 and the “level of expressed mRNA in the presence/in the absence of chemical substance” value (yeast gene YLR081W) was 0.6. For the same molecule, the “level of expressed mRNA in the presence/in the absence of chemical substance” value (yeast gene YLR089C) was 1.0, the “The level of expressed mRNA in the presence of chemical substance/The level of expressed mRNA in the absence of chemical substance” value (yeast gene YLR180W) was 0.6 and the “The level of expressed mRNA in the presence of chemical substance/The level of expressed mRNA in the absence of chemical substance” value (yeast gene YLR273C) was 1.7. For the same molecule, the “level of expressed mRNA in the presence/in the absence of chemical substance” value (yeast gene YLR284C) was 0.8, the “The level of expressed mRNA in the presence of chemical substance/The level of expressed mRNA in the absence of chemical substance” value (yeast gene YLR299W) was 2.9 and the “level of expressed mRNA in the presence/in the absence of chemical substance” value (yeast gene YLR304C) was 0.5. For the same molecule, the “The level of expressed mRNA in the presence of chemical substance/The level of expressed mRNA in the absence of chemical substance” value (yeast gene YLR307W) was 1.0, the “The level of expressed mRNA in the presence of chemical substance/The level of expressed mRNA in the absence of chemical substance” value (yeast gene YLR348C) was 1.9 and the “level of expressed mRNA in the presence/in the absence of chemical substance” value (yeast gene YLR354C) was 1.0. The “level of expressed mRNA in the presence/in the absence of chemical substance” value (yeast gene YLR372W) was 0.1, the “level of expressed mRNA in the presence/in the absence of chemical substance” value (yeast gene YML022W) was 0.2 and the “level of expressed mRNA in the presence/in the absence of chemical substance” value (yeast gene YMR011W) was 0.4. For the same molecule, the “level of expressed mRNA in the presence/in the absence of chemical substance” value (yeast gene YMR015C) was 0.4, the “level of expressed mRNA in the presence/in the absence of chemical substance” value (yeast gene YMR083W) was 0.9 and the “The level of expressed mRNA in the presence of chemical substance/The level of expressed mRNA in the absence of chemical substance” value (yeast gene YMR189W) was 0.9. For the same molecule, the “level of expressed mRNA in the presence/in the absence of chemical substance” value (yeast gene YMR205C) was 1.3, the “level of expressed mRNA in the presence/in the absence of chemical substance” value (yeast gene YMR261C) was 1.6 and the “The level of expressed mRNA in the presence of chemical substance/The level of expressed mRNA in the absence of chemical substance” value (yeast gene YMR296C) was 0.9. For the same molecule, the “level of expressed mRNA in the presence/in the absence of chemical substance” value (yeast gene YMR323W) was 1.8, the “The level of expressed mRNA in the presence of chemical substance/The level of expressed mRNA in the absence of chemical substance” value (yeast gene YNL012W) was 2.9 and the “level of expressed mRNA in the presence/in the absence of chemical substance” value (yeast gene YNL025C) was 1.3. The “The level of expressed mRNA in the presence of chemical substance/The level of expressed mRNA in the absence of chemical substance” value (yeast gene YNL037C) was 1.9, the “The level of expressed mRNA in the presence of chemical substance/The level of expressed mRNA in the absence of chemical substance” value (yeast gene YNL045W) was 2.6 and the “The level of expressed mRNA in the presence of chemical substance/The level of expressed mRNA in the absence of chemical substance” value (yeast gene YNL104C) was 2.1. The “The level of expressed mRNA in the presence of chemical substance/The level of expressed mRNA in the absence of chemical substance” value (yeast gene YNL106C) was 0.9, the “The level of expressed mRNA in the presence of chemical substance/The level of expressed mRNA in the absence of chemical substance” value (yeast gene YNL169C) was 1.7 and the “level of expressed mRNA in the presence/in the absence of chemical substance” value (yeast gene YNL192W) was 2.7. The “The level of expressed mRNA in the presence of chemical substance/The level of expressed mRNA in the absence of chemical substance” value (yeast gene YNL322C) was 0.8, the “The level of expressed mRNA in the presence of chemical substance/The level of expressed mRNA in the absence of chemical substance” value (yeast gene YNL331C) was 3.1 and the “The level of expressed mRNA in the presence of chemical substance/The level of expressed mRNA in the absence of chemical substance” value (yeast gene YNL332W) was 2.1. For the same molecule, the “The level of expressed mRNA in the presence of chemical substance/The level of expressed mRNA in the absence of chemical substance” value (yeast gene YNR002C) was 2.1, the “The level of expressed mRNA in the presence of chemical substance/The level of expressed mRNA in the absence of chemical substance” value (yeast gene YNR019W) was 2.1 and the “The level of expressed mRNA in the presence of chemical substance/The level of expressed mRNA in the absence of chemical substance” value (yeast gene YNR059W) was 2.4. The “The level of expressed mRNA in the presence of chemical substance/The level of expressed mRNA in the absence of chemical substance” value (yeast gene YOL058W) was 1.2, the “level of expressed mRNA in the presence/in the absence of chemical substance” value (yeast gene YOL086C) was 1.7 and the “level of expressed mRNA in the presence/in the absence of chemical substance” value (yeast gene YOL108C) was 1.3. For the same molecule, the “level of expressed mRNA in the presence/in the absence of chemical substance” value (yeast gene YOL116W) was 0.8, the “The level of expressed mRNA in the presence of chemical substance/The level of expressed mRNA in the absence of chemical substance” value (yeast gene YOL143C) was 1.2 and the “level of expressed mRNA in the presence/in the absence of chemical substance” value (yeast gene YOL156W) was 1.7. The “The level of expressed mRNA in the presence of chemical substance/The level of expressed mRNA in the absence of chemical substance” value (yeast gene YOL165C) was 3.7, the “level of expressed mRNA in the presence/in the absence of chemical substance” value (yeast gene YOR002W) was 0.6 and the “level of expressed mRNA in the presence/in the absence of chemical substance” value (yeast gene YOR085W) was 1.0. The “The level of expressed mRNA in the presence of chemical substance/The level of expressed mRNA in the absence of chemical substance” value (yeast gene YOR099W) was 1.6, the “level of expressed mRNA in the presence/in the absence of chemical substance” value (yeast gene YOR103C) was 0.8 and the “level of expressed mRNA in the presence/in the absence of chemical substance” value (yeast gene YOR108W) was 1.3. For the same molecule, the “level of expressed mRNA in the presence/in the absence of chemical substance” value (yeast gene YOR128C) was 0.4, the “The level of expressed mRNA in the presence of chemical substance/The level of expressed mRNA in the absence of chemical substance” value (yeast gene YOR130C) was 2.1 and the “The level of expressed mRNA in the presence of chemical substance/The level of expressed mRNA in the absence of chemical substance” value (yeast gene YOR136W) was 1.5. The “level of expressed mRNA in the presence/in the absence of chemical substance” value (yeast gene YOR142W) was 1.4, the “level of expressed mRNA in the presence/in the absence of chemical substance” value (yeast gene YOR176W) was 1.5 and the “level of expressed mRNA in the presence/in the absence of chemical substance” value (yeast gene YOR178C) was 1.0. The “level of expressed mRNA in the presence/in the absence of chemical substance” value (yeast gene YOR251C) was 1.0, the “The level of expressed mRNA in the presence of chemical substance/The level of expressed mRNA in the absence of chemical substance” value (yeast gene YOR336W) was 2.1 and the “The level of expressed mRNA in the presence of chemical substance/The level of expressed mRNA in the absence of chemical substance” value (yeast gene YOR347C) was 1.8. For the same molecule, the “level of expressed mRNA in the presence/in the absence of chemical substance” value (yeast gene YOR348C) was 1.1, the “The level of expressed mRNA in the presence of chemical substance/The level of expressed mRNA in the absence of chemical substance” value (yeast gene YPL017C) was 1.9 and the “level of expressed mRNA in the presence/in the absence of chemical substance” value (yeast gene YPL028W) was 0.9. The “level of expressed mRNA in the presence/in the absence of chemical substance” value (yeast gene YPL057C) was 1.3, the “level of expressed mRNA in the presence/in the absence of chemical substance” value (yeast gene YPL135W) was 1.2 and the “level of expressed mRNA in the presence/in the absence of chemical substance” value (yeast gene YPL148C) was 0.6. For the same molecule, the “level of expressed mRNA in the presence/in the absence of chemical substance” value (yeast gene YPR113W) was 0.7, the “level of expressed mRNA in the presence/in the absence of chemical substance” value (yeast gene YPR165W) was 1.0 and the “The level of expressed mRNA in the presence of chemical substance/The level of expressed mRNA in the absence of chemical substance” value (yeast gene YPR167C) was 1.9. The “level of expressed mRNA in the presence/in the absence of chemical substance” value (yeast gene YPR183W) was 1.6.
